Tests used:
RAD51 [1] = biological target: T1, RAD51 (Homo sapiens, UniProt Q06609); test: Gel-based D-loop assay; assay type: biochemical; conditions: Table 2
T1 sequence (Q06609 1-339): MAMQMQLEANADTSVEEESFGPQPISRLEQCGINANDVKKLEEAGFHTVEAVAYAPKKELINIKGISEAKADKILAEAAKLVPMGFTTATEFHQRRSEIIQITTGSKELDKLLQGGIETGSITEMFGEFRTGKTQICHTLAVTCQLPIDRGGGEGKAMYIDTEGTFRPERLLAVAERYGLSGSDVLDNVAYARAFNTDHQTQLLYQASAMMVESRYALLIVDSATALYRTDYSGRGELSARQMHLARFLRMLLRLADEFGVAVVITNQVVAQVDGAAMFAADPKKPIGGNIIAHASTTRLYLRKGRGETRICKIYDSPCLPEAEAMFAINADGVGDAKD
Experimental: Human RAD51 in reaction buffer was combined with compound in […] DMSO, incubated at 37° C. for 10 min, and then 1 μl of 5′-^32P-labeled 90-mer ssDNA (5′-[…]) with homology to the plasmid pRS306 ^34 was added and the reaction was incubated at 37° C. for an additional 5 minutes. 1 μl of supercoiled pRS306 was then added to the reaction and incubated at 37° C. for 20 minutes; at this point the reaction consisted of 25 mM HEPES-NaOH (pH 7.0), 1 mM ATP, 1 mM MgCl2, 1 mM DTT, 1.5 μM BSA, 4.5% DMSO, 0.5 μM RAD51, 11 mM NaCl, 1% glycerol, 20 nM ssDNA, and 5 nM pRS306. The reactions were de-proteinized with 0.8% SDS and 0.8 mg/ml proteinase K, mixed with gel loading buffer, and run on a 0.9% agarose/1×TAE gel, which was dried and exposed to a phosphor screen overnight and imaged on a Storm 860 PhosphorImager. Compound IC50 values were obtained by least-squares regression fitting of appropriate linear, log, or sigmoid dose-response models to the data, with the standard error indicated.
To improve upon the D-loop inhibitory activity, medicinal chemical studies were undertaken to optimize 8. First, different functional groups were appended to rings A and B as substituents, including alkyl groups of different sizes, electron withdrawing/donating groups, and hydrogen bond donor/acceptor groups. Next, replacement of the phenyl ring B with different heterocycles or other saturated/unsaturated rings was investigated in order to probe its role. For each of the prepared compounds, the gel-based D-loop assay and the microplate-based DNA binding assay were used to characterize the biochemical activities.

293-DR-GFP cells = test: DR-GFP assay, quantitation of HR efficiency in cells; assay type: cell-based, human
Experimental: 293-DR-GFP cells were electroporated in Opti-MEM with 37.5 μg/ml pCBASce in 0.4 cm cuvettes at 325 V, 975 μF and seeded into 6-well plates with 2.5 ml complete DMEM+0.5% DMSO with compound and allowed to outgrow for 24 hours. Following outgrowth, cells were harvested and suspended in PBS with 1 μg/ml 7-aminoactinomycin D (7-AAD) and analyzed on a BD FACSCalibur flow cytometer. Dead and apoptotic cells were gated out based on size, shape, and 7-AAD staining and the fraction of GFP-positive cells among the population of live cells was determined.
The DR-GFP assay was used to test the ability of representative compounds to inhibit HR in human cells.^27 Briefly, cells containing the chromosomal DR-GFP reporter were transfected with a plasmid that expresses I-SceI, a rare-cutting endonuclease that makes a DSB within the DR-GFP cassette. Compounds were added at the time of transfection and the cells were outgrown for 24 hours. For longer outgrowth periods such as 48 hours, cells regained some HR activity. To overcome this technical limitation, the relatively early time point of 24 hours was selected to describe the in vivo effects of these compounds.

RAD51 foci [2] = test: RAD51 cytological focus formation after irradiation; assay type: cell-based, human; conditions: 6 hours post-irradiation
Experimental: Cells were grown on glass coverslips for two days prior to irradiation with X-rays at 1.5 Gy/min using a Philips RT250 Maxitron. Following 6 hours of outgrowth, the adherent cells were incubated in permeabilization buffer (20 mM HEPES-NaOH (pH 7.4), 50 mM NaCl, 3 mM MgCl2, 0.5% Triton X-100, 300 mM sucrose) for 10 minutes at room temperature and then fixed in ice-cold fixation buffer (3% paraformaldehyde, 3.4% sucrose in 1×PBS) for 10 minutes at room temperature. The coverslips were washed 3 times in PBS, incubated in blocking buffer (1% BSA in 1×PBS) for 30 minutes, incubated with rabbit anti-human RAD51 primary antibody (Pacific Immunology) at a 1:1000 dilution in blocking buffer for 18 hours at 4° C., washed 3 times in PBS, incubated with Alexa488-conjugated goat anti-rabbit IgG secondary antibody (Invitrogen) at a 1:1000 dilution in blocking buffer for 1 hour at room temperature, washed 3 times in PBS, air-dried, and mounted onto glass slides in Vectashield with DAPI H-1200 (Vector laboratories). Slides were viewed on a Zeiss Axio Imager.M1 epifluorescence microscope equipped with a CCD camera for acquiring images of at least 100 randomly-selected nuclei per test condition at a representative focal plane within the nuclear volume. Sub-nuclear RAD51 foci were quantified using ImageJ (NIH, Bethesda, Md.) using a custom macro set that automatically counts foci. […]

RAD51 [3] = biological target: T1, RAD51; test: Fluorescence polarization-based DNA binding assay (RAD51-ssDNA binding); assay type: biochemical
Experimental: The fluorescence polarization-based DNA binding assay and purification of human RAD51 used for this assay was performed as previously described with a few modifications.^23 Reactions were carried out in black 384-well polystyrene plates. In each well, RAD51 protein was combined with reaction buffer and varying concentrations of compound in DMSO in an initial volume of 40 μl and incubated at 37° C. for 40 minutes. Then, 10 μl of reaction buffer containing fluorescently-labeled ssDNA substrate (5′-Alexa488-oligo-dT45) was added and the reaction incubated at 37° C. for another 40 minutes, after which the plate was read on a Tecan Infinite 200 Pro plate reader equipped with two sets of 485±25 nm/535±35 nm with parallel or perpendicularly-oriented polarization filters. In both steps of the reaction setup, buffer components were maintained at 20 mM HEPES-NaOH (pH 7.5), 2 mM ATP, 10 mM MgCl2, 0.1 mM TCEP-HCl (tris(2-carboxyethyl)phosphine), and 0.25 μM BSA. The final reaction contained 4% DMSO, 0.2 μM RAD51, 30 mM NaCl, 2% glycerol, and 2.22 nM ssDNA substrate. Compound IC50 values were obtained by least-squares regression fitting of appropriate linear, log, or sigmoid dose-response models to the data, with the standard error indicated. […]

[4] = tested on: PC-3, Caov-3, SKOV3.ip1, Kuramochi, U2OS cell lines; test: Clonogenic survival of tumor cell lines after veliparib, olaparib or ionizing radiation; assay type: cell-based; conditions: administered immediately after veliparib, present during clonogenic outgrowth, FIGS. 6a-f
Experimental: FIG. 6A PC-3 cell line treated with veliparib. FIG. 6B Caov-3 cell line treated with veliparib. FIG. 6C Caov-3 cell line treated with olaparib. FIG. 6D SKOV3.ip1 cell line treated with veliparib. FIG. 6E Kuramochi cell line treated with veliparib. FIG. 6F U2OS cell line treated with ionizing radiation (x-rays).
Because 9h inhibits HR-mediated repair of DSBs, the effect of 9h on the sensitization of cancer cells to PARP inhibition or radiation damage was investigated. […] 2.

RAD51 foci [5] = conditions: previously reported; cited from earlier work
RAD51 [6] = biological target: T1, RAD51; conditions: while sparing ssDNA binding activity; cited from earlier work

## CCNc1ccc(-c2nc3ccccc3n3cccc23)cc1 [Compound 9h, N-ethyl-4-(pyrrolo[1,2-a]quinoxalin-4-yl)aniline]
RAD51 [1]
  D-Loops Max inhibition effect: 91 ± 2%
293-DR-GFP cells; Homo sapiens, 24 hours post-transfection, FIG. 5b, read-out: IC50, inhibition of cellular HR
  IC50: 300 ± 125 nM
293-DR-GFP cells; at concentrations that did not inhibit RAD51 foci assembly
  inhibition of cellular HR: more than 90%
RAD51 foci [2]
  timely assembly of RAD51 into sub-nuclear foci in response to DNA damage: did not inhibit
RAD51 [3]; Table 2, cells marked ↑: compound stimulates RAD51-ssDNA binding, read-out: ssDNA binding Max effect
  Emax: 2 ± 24%
RAD51 [3]; summary of Tables 2 and 3
  influence on RAD51-ssDNA binding, in words: almost no impact
[4]
  sensitization of cancer cell lines to veliparib, olaparib or irradiation (clonogenic survival): significantly sensitized
[4]; listed as RI(dl)-2
  sensitization of cancer cell lines to veliparib, olaparib or irradiation (clonogenic survival): significantly sensitizes

## C[C@@]12CCC(=O)c3coc(c31)C(=O)c1cc3c(cc12)C(=O)C=CC3=O [Halenaquinone, halenaquinone]
RAD51 foci [5]
  formation of RAD51 foci in human cells following irradiation: inhibit
RAD51 [6]
  inhibition of RAD51's HR activity in biochemical assays: strongly inhibit
